Measurements reported in US20220356174A1, “PYRIDIN-2-ONE COMPOUNDS USEFUL AS SMARCA2 ANTAGONISTS” (Epizyme, Inc., priority 2018, published 2022).
Like-named read-outs stand apart in the source and are kept apart here.

Columns and labels:
H358 cells = experiment: High-throughput proliferation (HTP) assay for H358 cells (CellTiter-Glo, 7 days); assay type: cell-based; conditions: Homo sapiens, NCI-H358, 168 h, read-out: H358 SMARCA2 IC50
Outline: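 Cells were plated at 1,000 cells/well in RPMI 1640 + 10% HI-FBS + 1% pen/strep on pre-dispensed compound and incubated 7 days at 37 °C, 5% CO2. Viability was read as ATP luminescence with CellTiter-Glo after 30 min at RT. DMSO served as 0% and 10 µM doxorubicin as 100% inhibition for EC50/IC50.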

A549 cells = experiment: High-throughput proliferation (HTP) assay for A549 cells (CellTiter-Glo, 7 days); assay type: cell-based; conditions: Homo sapiens, 168 h, read-out: A549 SMARCA2 IC50
Outline: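 A549 cells plated at 62.5 cells/well in F12K + 10% HI-FBS onto pre-dispensed compound, grown 7 days at 37° C., 5% CO2. Viability by CellTiter-Glo luminescence after 30 min at RT; EC50/IC50 from DMSO (0%) and 10 μM Doxorubicin (100%) inhibition controls.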

FL-SMARCA4 = FL-SMARCA4 (Homo sapiens, UniProt P51532); experiment: SMARCA4 ATPase activity assay (ADP-Glo, chicken mononucleosome substrate)
Sequence of FL-SMARCA4 (P51532 whole entry, canonical isoform): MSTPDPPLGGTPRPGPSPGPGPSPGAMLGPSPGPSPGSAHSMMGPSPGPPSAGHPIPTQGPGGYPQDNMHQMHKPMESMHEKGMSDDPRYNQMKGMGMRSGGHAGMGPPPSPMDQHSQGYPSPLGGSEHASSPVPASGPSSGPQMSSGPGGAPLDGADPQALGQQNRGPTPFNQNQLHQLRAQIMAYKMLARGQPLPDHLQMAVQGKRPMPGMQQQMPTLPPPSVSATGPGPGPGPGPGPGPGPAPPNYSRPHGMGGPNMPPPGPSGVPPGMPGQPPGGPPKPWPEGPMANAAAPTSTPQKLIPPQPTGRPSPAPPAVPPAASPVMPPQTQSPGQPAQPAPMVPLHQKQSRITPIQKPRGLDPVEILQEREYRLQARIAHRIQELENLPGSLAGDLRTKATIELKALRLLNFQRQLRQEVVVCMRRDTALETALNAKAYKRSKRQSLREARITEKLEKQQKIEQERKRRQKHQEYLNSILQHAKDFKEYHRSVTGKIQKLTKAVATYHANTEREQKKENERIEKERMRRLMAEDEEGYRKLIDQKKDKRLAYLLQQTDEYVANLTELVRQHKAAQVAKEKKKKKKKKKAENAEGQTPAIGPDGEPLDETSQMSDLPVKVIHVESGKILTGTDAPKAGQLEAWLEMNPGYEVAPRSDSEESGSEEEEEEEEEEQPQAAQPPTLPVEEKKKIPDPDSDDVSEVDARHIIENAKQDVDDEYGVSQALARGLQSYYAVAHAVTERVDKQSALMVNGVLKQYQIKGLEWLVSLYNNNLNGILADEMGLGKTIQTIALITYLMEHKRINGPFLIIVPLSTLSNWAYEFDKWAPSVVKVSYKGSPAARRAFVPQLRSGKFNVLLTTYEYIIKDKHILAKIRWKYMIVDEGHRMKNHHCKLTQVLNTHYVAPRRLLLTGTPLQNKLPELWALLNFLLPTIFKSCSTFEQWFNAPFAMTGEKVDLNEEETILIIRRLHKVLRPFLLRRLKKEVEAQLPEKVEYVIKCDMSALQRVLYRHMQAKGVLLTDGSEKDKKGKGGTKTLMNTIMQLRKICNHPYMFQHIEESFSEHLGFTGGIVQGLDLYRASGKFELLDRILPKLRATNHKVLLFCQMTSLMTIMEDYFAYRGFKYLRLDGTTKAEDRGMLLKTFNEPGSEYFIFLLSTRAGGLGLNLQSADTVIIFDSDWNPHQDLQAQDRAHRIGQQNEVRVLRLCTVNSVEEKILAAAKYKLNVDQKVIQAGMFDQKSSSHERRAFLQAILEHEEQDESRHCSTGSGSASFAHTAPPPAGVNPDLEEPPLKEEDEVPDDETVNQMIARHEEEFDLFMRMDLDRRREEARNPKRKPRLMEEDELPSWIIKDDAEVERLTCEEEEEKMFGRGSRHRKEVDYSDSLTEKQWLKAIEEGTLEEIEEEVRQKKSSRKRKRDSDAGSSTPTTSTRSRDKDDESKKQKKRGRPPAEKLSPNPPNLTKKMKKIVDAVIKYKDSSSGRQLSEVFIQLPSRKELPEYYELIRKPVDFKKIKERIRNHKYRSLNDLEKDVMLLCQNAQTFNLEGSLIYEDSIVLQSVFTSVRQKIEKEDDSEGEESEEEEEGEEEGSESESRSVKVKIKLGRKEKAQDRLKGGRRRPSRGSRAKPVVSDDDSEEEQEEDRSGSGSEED

[1] = target: T1, FL-SMARCA2 (full-length human SMARCA2 isoform 1) (Homo sapiens, UniProt P51531); experiment: SMARCA2 ATPase activity assay (ADP-Glo, chicken mononucleosome substrate); assay type: biochemical; conditions: ATPase assay, enzyme 5 nM, ATP 250 uM, chicken mononucleosome 10 nM, 30 min preincubation
T1 construct: FLAG tag (YKDDDDK) (C); made in house; host or cells: Sf21 insect cells (baculovirus, pFastBacI)
T1 sequence (P51531 with tags, fused parts or gaps): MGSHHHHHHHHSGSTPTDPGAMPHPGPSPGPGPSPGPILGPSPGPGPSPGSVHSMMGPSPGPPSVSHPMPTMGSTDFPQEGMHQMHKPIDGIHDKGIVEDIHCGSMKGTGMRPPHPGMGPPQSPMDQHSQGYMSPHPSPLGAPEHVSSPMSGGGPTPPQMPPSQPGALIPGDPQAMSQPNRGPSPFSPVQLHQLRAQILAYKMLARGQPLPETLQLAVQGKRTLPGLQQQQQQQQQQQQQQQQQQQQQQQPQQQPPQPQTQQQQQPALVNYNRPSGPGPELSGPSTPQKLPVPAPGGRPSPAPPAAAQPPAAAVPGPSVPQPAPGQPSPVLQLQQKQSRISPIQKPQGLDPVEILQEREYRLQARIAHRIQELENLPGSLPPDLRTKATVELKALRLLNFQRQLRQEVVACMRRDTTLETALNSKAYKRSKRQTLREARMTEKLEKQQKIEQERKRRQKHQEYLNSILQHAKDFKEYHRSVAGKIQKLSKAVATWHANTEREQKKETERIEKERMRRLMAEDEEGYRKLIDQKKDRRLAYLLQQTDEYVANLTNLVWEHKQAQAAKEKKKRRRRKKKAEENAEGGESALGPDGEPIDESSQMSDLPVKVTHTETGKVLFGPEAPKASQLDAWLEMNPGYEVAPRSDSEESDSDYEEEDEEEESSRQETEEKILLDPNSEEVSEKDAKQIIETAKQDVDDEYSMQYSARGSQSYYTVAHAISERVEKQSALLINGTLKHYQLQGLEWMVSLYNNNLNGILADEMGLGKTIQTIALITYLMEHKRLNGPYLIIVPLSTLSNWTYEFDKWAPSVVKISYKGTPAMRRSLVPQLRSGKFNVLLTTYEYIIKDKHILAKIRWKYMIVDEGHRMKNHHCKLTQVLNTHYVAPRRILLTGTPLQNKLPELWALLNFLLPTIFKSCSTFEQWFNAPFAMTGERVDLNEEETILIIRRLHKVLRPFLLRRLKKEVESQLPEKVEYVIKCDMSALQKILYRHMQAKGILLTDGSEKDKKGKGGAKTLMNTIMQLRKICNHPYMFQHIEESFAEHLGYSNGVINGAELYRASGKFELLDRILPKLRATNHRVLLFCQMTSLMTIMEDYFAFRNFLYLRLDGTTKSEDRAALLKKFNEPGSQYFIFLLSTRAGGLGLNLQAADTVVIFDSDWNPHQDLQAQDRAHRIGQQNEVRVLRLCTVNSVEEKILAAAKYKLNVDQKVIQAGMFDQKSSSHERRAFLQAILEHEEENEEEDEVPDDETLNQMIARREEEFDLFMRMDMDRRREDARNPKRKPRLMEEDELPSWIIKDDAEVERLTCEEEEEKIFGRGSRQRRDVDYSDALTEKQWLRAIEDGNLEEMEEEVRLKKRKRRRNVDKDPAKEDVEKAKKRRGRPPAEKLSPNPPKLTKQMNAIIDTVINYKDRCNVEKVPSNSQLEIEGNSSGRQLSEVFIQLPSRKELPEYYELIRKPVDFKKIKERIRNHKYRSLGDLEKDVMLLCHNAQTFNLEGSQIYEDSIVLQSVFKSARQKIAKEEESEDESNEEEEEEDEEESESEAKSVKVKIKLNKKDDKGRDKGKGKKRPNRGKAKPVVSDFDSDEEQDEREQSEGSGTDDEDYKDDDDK

SMARCA2 = target: T2, SMARCA2 (Homo sapiens, UniProt P51531); experiment: SMARCA2 FRET nucleosome remodeling activity assay; assay type: biochemical
T2 construct: FLAG tag (YKDDDDK) (C); made in house; host or cells: Sf21 insect cells (baculovirus, pFastBacI)
T2 sequence (P51531 with tags, fused parts or gaps): as above
Protocol: The SMARCA2 remodeling assay was initiated by the addition of 2 uL of a nucleosome remodeling assay substrate and ATP mixture (final volume=10 uL). […] The assays were terminated after 15 minutes by the addition of 2 uL EDTA (final concentration of 25 mM). The SMARCA2 remodeling activity was determined by measuring the fluorescence ratio of the Cy3 and Cy5 labels ([…]). The remodeling of the nucleosome substrate causes an increase in the spacing between the Cy3 and Cy5 labels and therefore a reduction in FRET and an increase in Cy3/Cy5 fluorescence ratio.

[2] = Table 3d.1, read-out: FL-SMARCA2 IC>50
[3] = FL-SMARCA4 IC50, Table 3.2, ATPase assay, enzyme 5 nM, ATP 250 uM, chicken mononucleosome 10 nM, 30 min preincubation
[4] = FL-SMARCA4 IC>50, Table 3c.2, ATPase assay, enzyme 5 nM, ATP 250 uM, chicken mononucleosome 10 nM, 30 min preincubation

| IC50 (H358 cells) [nM] | IC50 (A549 cells) [nM] | IC50 (FL-SMARCA4; FL-SMARCA4 IC50) [nM] | IC50 [1, 2] [nM] | IC50 (SMARCA2) [nM] | IC50 (FL-SMARCA4; [3]) [nM] | IC50 ([1]; Table 3.1) [nM] | IC50 (FL-SMARCA4; [4]) [nM] | IC50 ([1]; Table 3c.1) [nM] | Structure (SMILES) |
| --- | --- | --- | --- | --- | --- | --- | --- | --- | --- |
| > 10000 | > 10000 | 4370 | 1580 |  |  |  |  |  | O=C(Nc1cc(F)c(=O)n(CC(F)F)c1)c1cc(C#CCn2cnnc2)c(Cl)s1 [Compound 126d] |
|  |  |  |  | 2570 | 3590 | 1020 |  |  | CCn1cc(NC(=O)c2cc(Cl)n[nH]2)cc(Cl)c1=O [Compound 146] |
| > 10000 | 7980 | > 50000 | > 50000 |  |  |  |  |  | CN1CCCC(C#Cc2sc(C(=O)Nc3cc(F)c(=O)n(CC(F)F)c3)cc2Cl)C1 (stereo not drawn) [Compound 132d] |
| > 10000 | 5240 |  |  |  | 606 | 181 |  |  | O=C(Nc1cc(F)c(=O)n(CC(F)F)c1)c1cc(C#Cc2cncnc2)c(Cl)s1 [Compound 346] |
| > 10000 | 4460 |  |  |  |  |  | 166 | 52.2 | NCc1nc(C#Cc2cc(C(=O)Nc3cc(F)c(=O)n(CC(F)F)c3)sc2Cl)cs1 [Compound 125c] |
| > 10000 | 2080 | 99.3 | 35.8 |  |  |  |  |  | O=C(Nc1cc(F)c(=O)n(CC(F)F)c1)c1cc(C#Cc2ccc3nccn3c2)c(Cl)s1 [Compound 115d] |
| > 10000 | > 10000 |  |  |  |  |  | 13.7 | 8.68 | O=C(O)c1cccc(C#Cc2cc(C(=O)Nc3cc(F)c(=O)n(CC(F)F)c3)sc2Cl)c1 [Compound 131c] |
| > 10000 | > 10000 |  |  |  |  |  | 36200 | 30800 | O=C(Nc1cc(C2COC2)c(=O)n(CC(F)F)c1)c1cc(F)c(Cl)s1 [Compound 155c] |
| > 10000 | 1780 |  |  |  |  |  | 54.5 | 20 | CC(=O)Nc1cccc(C#Cc2cc(C(=O)Nc3cc(F)c(=O)n(CC(F)F)c3)sc2Cl)c1 [Compound 75c] |
| > 10000 | > 10000 | 2880 | 967 |  |  |  |  |  | CN1CC(C#Cc2cc(C(=O)Nc3cc(F)c(=O)n(CC(F)F)c3)sc2Cl)CC1=O (stereo not drawn) [Compound 113d] |
| > 10000 | 3650 | 36.3 | 18 |  |  |  |  |  | Cn1cc(C#Cc2cc(C(=O)Nc3cc(F)c(=O)n(CC(F)F)c3)sc2Cl)ccc1=O [Compound 60d] |
| > 10000 | > 10000 |  |  |  |  |  | 208 | 81.7 | O=C(Nc1cc(F)c(=O)n(CC(F)F)c1)c1cc(C#Cc2ccc3c(c2)C(=O)NC3)c(Cl)s1 [Compound 145c] |
| > 10000 | 5620 | 2070 | 187 |  |  |  |  |  | O=C(Nc1cc(F)c(=O)n(CC(F)F)c1)c1cc(OC(F)(F)F)c(C(F)(F)F)s1 [Compound 89d] |
| > 10000 | > 10000 | 1140 | 224 |  |  |  |  |  | Cc1cc(C(=O)Nc2cc(F)c(=O)n(CC(F)F)c2)sc1C(F)(F)F [Compound 80d] |
| > 10000 | > 10000 | 10200 | 1310 |  |  |  |  |  | N#Cc1cc(C(=O)Nc2cc(C(F)F)c(=O)n(CC(F)F)c2)sc1C(F)(F)F [Compound 76d] |
| > 10000 | > 10000 | 102 | 61.9 |  |  |  |  |  | O=C1Cc2ncc(C#Cc3cc(C(=O)NC4=NC(CC(F)F)C(=O)C(F)=C4)sc3Cl)cc2N1 (stereo not drawn) [Compound 58d] |
| 4050 | 3240 | > 50000 | > 50000 |  |  |  |  |  | Cn1cc(C#Cc2cc(C(=O)Nc3cc([N+](=O)[O-])c(=O)n(CC(F)F)c3)sc2C(F)(F)F)cn1 [Compound 128d] |
| > 10000 | 2380 | 334 | 160 |  |  |  |  |  | O=C(Nc1cc(F)c(=O)n(CC(F)F)c1)c1cc(C#CC23CC(CO)(C2)C3)c(Cl)s1 [Compound 135d] |
| > 10000 | > 10000 | 1450 | 586 |  |  |  |  |  | O=C(Nc1cc(F)c(=O)n(CC(F)F)c1)c1cc(C#CCn2cncn2)c(Cl)s1 [Compound 127d] |
| > 10000 | 4600 |  |  |  |  |  | 130 | 52 | O=C(Nc1cc(F)c(=O)n(CC(F)F)c1)c1cc(C#Cc2cnn(CCO)c2)c(Cl)s1 [Compound 122c] |
| 550 | 639 |  |  |  |  |  | 186 | 59.9 | Cc1nsc(C#Cc2cc(C(=O)Nc3cc(F)c(=O)n(CC(F)F)c3)sc2Cl)n1 [Compound 139c] |
| > 10000 | 4270 |  |  |  |  |  | 250 | 82.7 | O=C(Nc1cc(F)c(=O)n(CC(F)F)c1)c1cc(C#Cc2ccccc2)c(Cl)s1 [Compound 41c] |
